Measured values from patent US11478469B2, “Combination product of BCL-2 inhibitor and MDM2 inhibitor and use thereof in the prevention and/or treatment of diseases” (ASCENTAGE PHARMA (SUZHOU) CO., LTD., priority 2018, dated 2022).

Experiments:
[1] = test system: MOLM-13-Luc systemic human AML; assay: Systemic MOLM-13-Luc human AML xenograft model in NOD SCID mice; assay type: in vivo, mouse; details: compound 6 100 mg/kg qd×21 d; APG-115 100 mg/kg daily for seven days
Protocol: (1) The combined benefits of APG-115 and compound 6 for the therapy of AML was further evaluated in a difficult-to-treat disseminated MOLM-13-Luc systemic human AML model.
The MOLM-13-Luc tumor cells were maintained in vitro as suspension culture in RPMI 1640 medium supplemented with 10% heat inactivated fetal bovine serum (Gibco product), 100 U/mL penicillin and 100 μg/mL streptomycin, at 37° C. in an atmosphere of 5% CO2 in air. The tumor cells were routinely subcultured twice weekly. The cells growing in an exponential growth phase were harvested and counted for tumor inoculation.
The female NOD SCID mice were pre-treated with 2 times of 150 mg/kg cyclophosphamide, QD, at 24 hours before cell inoculation. Each mouse was inoculated with MOLM-13-Luc tumor cells (2×10^6/mouse) in 0.2 mL of PBS via tail vein for tumor development.
Animals were selected for grouping on day 3 after tumor implantation when the average bioluminescence measurement reached 3.18×107 photons/sec. A high dose pulse regimen (i.e. 100 mg/kg daily for seven days) was applied for APG-115 in this study.

[2] = test system: human RS4;11 (ALL) mouse xenograft tumor; assay: Human RS4;11 ALL mouse xenograft tumor model; assay type: in vivo; details: for antitumor effect in words: 21 days of administration, Compound 6 50 mg/kg qd alone (12.5 or 50 mg/kg in combination), APG-115 50 mg/kg q2d; for CR (tumor complete regression), mice per group, day 21 after administration / PR (tumor partial regression), mice per group, day 21 after administration / RTV on day 21 after administration (mean ± standard error) / T/C (%) on day 21 after administration / Tumor remission rate % on day 21 after administration: Compound 6 50 mg/kg qd and/or APG-115 50 mg/kg q2d; for Tumor remission rate % on day 21 after administration: remission including CR, PR, and SD
Excerpt: (§1) A subcutaneous xenograft tumor model of human tumor immunodeficient mice was established by cell inoculation (see: Gould S E et al. Translational value of mouse models in oncology drug development. Nature medicine. 2015 21, 431-439; and, Souers A J et al. ABT-199, a potent and selective BCL-2 inhibitor, achieves antitumor activity while sparing platelets. Nature medicine. 2012 19.202-208): tumor cells in logarithmic growth phase were collected, counted and resuspended in 1×PBS, and the cell suspension concentration was adjusted to 2.5-5×10^7/mL. Using a 1 mL syringe ([…]), the tumor cells were inoculated subcutaneously in the right side of immunodeficient mice, 5-10×106/0.2 mL/mouse (experimental animals were purchased from Beijing Vital River Laboratory Animal Technology Co., Ltd. SCXK (Beijing) 2016-0006). All animal experiments were strictly in accordance with the laboratory animal use and management practices of GenePharma Co., Ltd. and Ascentage Pharma Group Co., Ltd. The calculation of relevant parameters referred to the Chinese CFDA “Guidelines for Non-Clinical Research Techniques of Cytotoxic Antitumor Drugs”.
(§2) Animal body weight and tumor size were measured twice a week during the experiment. The conditions and death of the animals were observed every day. Routine monitoring included the effects of tumor growth and treatment on normal animal behaviors, including activity, feeding and drinking situations, weight gain or loss, eyes, coat and other abnormalities in the experimental animals. The deaths and clinical symptoms observed during the experiment were recorded in the raw data. The entire operations of administration, measurement of mouse body weight and tumor volume were performed in a clean bench. Plasma and tumor tissues were collected, weighed and photographed after the end of the last administration according to the experimental protocol. Plasma and tumor samples were frozen and stored at −80° C.
(§3) Tumor volume (TV) was calculated as: TV=a×b2/2, in which a and b represented the length and width of the tumor as measured, respectively. The relative tumor volume (RTV) was calculated as: RTV=Vt/V1, in which V1 was the tumor volume at the time of grouping and administration, and Vt was the tumor volume measured on a day after administration. The evaluation index of anti-tumor activity was the relative tumor proliferation rate T/C (%), which was calculated as: relative tumor proliferation rate T/C (%)=(TRTV/CRTV)×100%, in which TRTV was the RTV of the treatment group, CRTV was the RTV of the vehicle control group; tumor remission rate (%) was calculated as: (the number of SD (stable disease), PR (tumor partial regression) and CR (tumor complete regression) in the tumor-bearing mice after treatment)/the total number of mice in the group×100%. Change of body weight %=(measured body weight−body weight at the time of grouping)/body weight at the time of grouping×100%.
(§4) The synergistic analysis was performed by the following formula (Gould S E et al. Translational value of mouse models in oncology drug development. Nature medicine. 2015 21, 431-439): synergy factor=((A/C)×(B/C))/(AB/C); A=RTV value of the group administered with A only; B═RTV value of the group administered with B only; C=RTV value of the vehicle control group; AB=RTV value of the group administered with A and B in combination (Clarke R. Issues in experimental design and endpoint analysis in the study of experimental cytotoxic agents in vivo in breast cancer and other models [J]. Breast Cancer Research & Treatment, 1997, 46(2-3): 255-278).
(1) The experimental method was as described in Section (2) of Example 1. RS4;11 carried wild-type p53 and was an ideal model for evaluating the anti-tumor effect of MDM2 inhibitors. […]

[3] = test system: human OCI-AML-3 (AML) mouse xenograft tumor; assay: Human OCI-AML-3 AML mouse xenograft tumor model; assay type: in vivo; details: for antitumor effect in words: 11 days of administration, Compound 6 25 or 100 mg/kg qd, APG-115 100 mg/kg (d1-d4) and 50 mg/kg (d5-d11) q2d
Excerpt: as §1, §2, §3, §4
(1) The experimental method was as described in Section (2) of Example 1. […] Therefore, a mouse xenograft tumor model was further established using the OCI-AML-3 tumor cell line to evaluate the in vivo anti-tumor effects of Compound 6 and APG-115. […]

[4] = test system: human MV-4-11 AML xenograft; assay: MV-4-11 AML xenograft in Balb/c nude mice; assay type: in vivo, mouse; details: for Response rate @D 22: mPD (progressive disease) / Best response rate: mPD (progressive disease): compound 6 100 mg/kg and/or APG-115 100 mg/kg, mice per group; for Response rate @D 22: mPD (progressive disease) / RTV @ D 22 / T/C (%) @ D 22: day 22; for RTV @ D 22 / T/C (%) @ D 22: compound 6 100 mg/kg p.o. qd×22 d and/or APG-115 100 mg/kg orally daily d1-7 and d16-22
Excerpt: as §1, §2, §3, §4
(1) The experimental method was as described in Section (2) of Example 1. Compound 6 is a selective BCL-2 inhibitor developed by the Ascentage Pharma Group. The agent is currently under clinical development for cancer therapy both in China and in the US. Enhanced anti-proliferation activity of APG-115 in combination with compound 6 has been observed in cell-based assay in AML cell lines in vitro. […]

[5] = APG-115 50 mg/kg alone (text: 100 mg/kg d1-d4, 50 mg/kg d5-d11, q2d)
[6] = Compound 6 25 mg/kg qd, alone or with APG-115 50 mg/kg
[7] = Compound 6 100 mg/kg qd, alone or with APG-115 50 mg/kg

Row | Structure (SMILES) | anti-leukemia activity / bioluminescence signals in words [1] | antitumor effect in words [2] | CR (tumor complete regression), mice per group, day 21 after administration [2] | PR (tumor partial regression), mice per group, day 21 after administration [2] | RTV on day 21 after administration (mean ± standard error) [2] | T/C (%) on day 21 after administration [2] | Tumor remission rate % on day 21 after administration [2] | antitumor effect in words [3] | RTV on day 11 after administration [3, 5] | T/C (%) value on day 11 after administration [3, 5] | Response rate @D 22: mPD (progressive disease) [4] | Best response rate: mPD (progressive disease) [4] | RTV @ D 22 [4] | T/C (%) @ D 22 [4] | RTV on day 11 after administration [3, 6] | T/C (%) value on day 11 after administration [3, 6] | RTV on day 11 after administration [3, 7] | T/C (%) value on day 11 after administration [3, 7]
1 | CCN1[C@@H](C(=O)NC23CCC(C(=O)O)(CC2)CC3)[C@H](c2cccc(Cl)c2F)[C@]2(C(=O)Nc3cc(Cl)ccc32)C12CCCCC2 [APG-115] | remarkedly decreased bioluminescence signals | no tumor growth inhibition effect | 0/5 | 0/5 | 11.1 ± 0.9 | 106% | 0% | did not exhibit tumor growth inhibition | 12.5 ± 2.5 | 69% | 6/6 mPD | 6/6 mPD | 9.2 ± 2.3 | 67.1% | – | – | – | –
2 | O=C(NS(=O)(=O)c1ccc(NC[C@H]2COCCO2)c([N+](=O)[O-])c1)c1ccc(N2CCN(CC3=C(c4ccc(Cl)cc4)CC4(CCC4)CC3)CC2)cc1Oc1cnc2[nH]ccc2c1 [Compound 6, (S)-N-((4-(((1,4-dioxan-2-yl)methyl)amino)-3-nitrophe-nyl)sulfonyl)-2-((1H-pyrrolo[2,3-b]pyridin-5-yl)oxy)-4-(4-((6-(4-chlorophenyl)spiro[3.5]non-6-en-7-yl)meth-yl)piperazin-1-yl)benzamide] | limited anti-leukemia activity | excellent antitumor effect | 0/5 | 1/5 | 1.8 ± 0.4 | 17% | 20% | did not exhibit tumor growth inhibition | – | – | 6/6 mPD | 6/6 mPD | 7.5 ± 0.9 | 55.1% | 16.2 ± 2.3 | 90% | 13.0 ± 1.9 | 72%
